For assay [1], the target named is c-Kit(V654A) (Homo sapiens, UniProt P10721, V654A). Briefly: c-Kit(V654A) assay. The class given is biochemical. The note with it: Table 1; 200 μM ATP. The protocol:
c-Kit(V654A) (N-terminal GST-tagged, recombinant human c-Kit, amino acids 544-end containing the V654A mutation) is incubated with 8 mM MOPS pH 7.0, 0.2 mM EDTA, 250 μM GGMEDIYEFMGGKKK, 10 mM MgAcetate and [gamma-33P-ATP](specific activity approx. 500 cpm/pmol, concentration 200 μM). The reaction is initiated by the addition of the MgATP mix. After incubation for 40 minutes at room temperature, the reaction is stopped by the addition of 3% phosphoric acid solution. 10 μL of the reaction is then spotted onto a P30 filtermat and washed three times for 5 minutes in 75 mM phosphoric acid and once in methanol prior to drying and scintillation counting.

Assay [2] deals with mutant cKIT (560-576 and V654A) in GIST430/654 cell line (Homo sapiens (Human), UniProt P10721, DEL560-576/V654A). Briefly: Cellular testing of cKIT mutant inhibitors: phospho-Y307-cKIT Luminex assay in GIST430/654 cells. The class given is cell-based. As to conditions: Table 1; cKIT autophosphorylation, compounds 45 min; read-out: GIST 430/654 IC50. The protocol: Assay Principle for Cellular Testing of cKIT Mutant Inhibitors
Sequence of mutant cKIT (560-576 and V654A) in GIST430/654 cell line (P10721 other isoform, or with tags, fused parts or gaps V654A/del 1-25/del 560-576 limits assumed): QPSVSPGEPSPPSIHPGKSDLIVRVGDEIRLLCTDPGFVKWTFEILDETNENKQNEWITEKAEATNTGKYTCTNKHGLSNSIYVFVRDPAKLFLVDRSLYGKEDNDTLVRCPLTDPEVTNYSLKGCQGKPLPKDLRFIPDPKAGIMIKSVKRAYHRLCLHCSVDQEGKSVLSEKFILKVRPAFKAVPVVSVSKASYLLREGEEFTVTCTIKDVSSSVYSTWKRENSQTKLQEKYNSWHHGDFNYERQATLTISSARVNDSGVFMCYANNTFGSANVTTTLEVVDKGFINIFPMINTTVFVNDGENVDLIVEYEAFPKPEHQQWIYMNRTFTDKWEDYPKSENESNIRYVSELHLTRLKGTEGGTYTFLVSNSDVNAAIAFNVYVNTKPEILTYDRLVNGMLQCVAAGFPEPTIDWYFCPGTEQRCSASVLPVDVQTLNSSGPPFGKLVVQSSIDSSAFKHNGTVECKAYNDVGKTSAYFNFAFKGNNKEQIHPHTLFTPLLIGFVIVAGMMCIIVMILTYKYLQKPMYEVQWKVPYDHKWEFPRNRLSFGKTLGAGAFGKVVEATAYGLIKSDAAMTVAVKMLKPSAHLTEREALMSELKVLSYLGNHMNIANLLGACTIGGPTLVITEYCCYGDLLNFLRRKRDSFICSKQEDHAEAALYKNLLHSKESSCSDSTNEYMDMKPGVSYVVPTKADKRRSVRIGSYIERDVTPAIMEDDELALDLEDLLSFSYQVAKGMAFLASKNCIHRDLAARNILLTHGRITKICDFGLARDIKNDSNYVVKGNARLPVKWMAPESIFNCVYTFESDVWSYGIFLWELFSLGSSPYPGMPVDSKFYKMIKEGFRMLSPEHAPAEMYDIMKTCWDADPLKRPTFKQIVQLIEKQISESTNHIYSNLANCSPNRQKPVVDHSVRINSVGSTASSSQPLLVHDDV
The GIST430/654 cell line expressing mutated constitutively active cKIT receptor tyrosine kinase ([…]560-576 and V654A) was employed for assessing cellular potency of compounds. Cellular activity of mutant cKIT was determined by the degree of cKIT autophosphorylation at tyrosine 307 using a Luminex-based bead assay. GIST430/654 cells were plated with 25,000 cells per well of a 96-well plate in 100 μl medium (85% IMDM/15% FCS supplemented with 100 nM Imatinib). At the following day compounds were added in a serial dilution for 45 min. Then, cells were lysed with 90 μl lysis buffer (20 mM Hepes pH 7.5, 200 mM NaCl, 1.5 mM MgCl2×6H2O, 0.4 mM EDTA, 1% Triton-X-100, 1% Phosphatase-Inhibitor II, 20 mM D-Glycerolphosphat, 0.1% Protease-Inhibitor Cocktail III, 0.01% Benzonase) und lysates were cleared by centrifugation through a 96-well filter plate (0.65 μm). Samples were incubated with Luminex-beads which were coupled with an anti-total cKIT antibody overnight at 4° C. under gentle agitation. For detection of phospho-Y307-cKIT a phosphospecific antibody and a species-specific PE-labelled secondary antibody were added. The amount of phospho-Y307-cKIT was determined in a Luminex 200 instrument measuring 100 events per well within 60 seconds.
Counts from samples treated with compounds were calculated as percent of control from solvent treated (0.3% DMSO) samples. Dose-response curves were fitted and IC50 values were determined using Genedata Screener software.

Structures are written as SMILES.

Consider `COCCOc1cc2[nH]nc(-c3cc(-c4ccc(C(=O)N=S(C)(C)=O)cc4)no3)c2cc1F` [A35, N-[dimethyl(oxo)-lambda6-sulfanylidene]-4-{5-[5-fluoro-6-(2-methoxyethoxy)-1H-indazol-3-yl]-1,2-oxazol-3-yl}benzamide], for which the IC50 in assay [1] came to 6.3 nM; in assay [2] it was 170 nM.

In the case of `COCCOc1cc2[nH]nc(-c3cc(-c4ccc(C(=O)N5CCN(C)CC5)cc4)no3)c2cc1F` [A36, 5-fluoro-6-(2-methoxyethoxy)-3-{3-[4-(4-methylpiperazine-1-carbonyl)phenyl]-1,2-oxazol-5-yl}-1H-indazole], the IC50 in assay [1] came out at 1.2 nM; in assay [2], 120 nM.

As for `COCCOc1cc2[nH]nc(-c3cc(-c4ccc(N5CCN(C)CC5)cc4)no3)c2cc1F` [A37, 5-fluoro-6-(2-methoxyethoxy)-3-{3-[4-(4-methylpiperazin-1-yl)phenyl]-1,2-oxazol-5-yl}-1H-indazole], the IC50 in assay [1] was 2 nM; in assay [2] it was 79 nM.

Turning to `CCOc1ccc(-c2cc(-c3n[nH]c4cc(OCCOC)c(F)cc34)on2)cn1` [A38, 3-[3-(6-ethoxypyridin-3-yl)-1,2-oxazol-5-yl]-5-fluoro-6-(2-methoxyethoxy)-1H-indazole], the IC50 in assay [1] was determined as 35 nM; in assay [2] it was 4400 nM.

As for `COCCOc1cc2[nH]nc(-c3cc(-c4ccc(N5CCN(C)CC5)nc4)no3)c2cc1F` [A39, 5-fluoro-6-(2-methoxyethoxy)-3-{3-[6-(4-methylpiperazin-1-yl)pyridin-3-yl]-1,2-oxazol-5-yl}-1H-indazole], the IC50 was 1.7 nM in assay [1] and 150 nM in assay [2].

Take `COCCOc1cc2[nH]nc(-c3cc(-c4ccc(OCCN5CCOCC5)cc4)no3)c2cc1F` [A40, 5-fluoro-6-(2-methoxyethoxy)-3-(3-{4-[2-(morpholin-4-yl)ethoxy]phenyl}-1,2-oxazol-5-yl)-1H-indazole]: the results for the IC50 in assay [1] and in assay [2] were 2.7 nM and 140 nM, respectively.

On to `COCCOc1cc2[nH]nc(-c3cc(-c4ccc(-n5ccccc5=O)cc4)no3)c2cc1F` [A41, 1-(4-{5-[5-Fluoro-6-(2-methoxy-ethoxy)-1H-indazol-3-yl]-isoxazol-3-yl}-phenyl)-1H-pyridin-2-one], for which the values for the IC50 in assay [1] and in assay [2] were 3.1 nM and 120 nM, respectively.

In the case of `COCCOc1cc2[nH]nc(-c3cc(-c4ccc(N5CCCNCC5)cc4)no3)c2cc1F` [A42, 3-{3-[4-(1,4-diazepan-1-yl)phenyl]-1,2-oxazol-5-yl}-5-fluoro-6-(2-methoxyethoxy)-1H-indazole], the IC50 in assay [1] was 0.73 nM; in assay [2] it was 170 nM.

With `COCCOc1cc2[nH]nc(-c3cc(-c4ccc(C(=O)N5CCOCC5)cc4)on3)c2cc1F` [A43, (4-{3-[5-fluoro-6-(2-methoxy-ethoxy)-1H-indazol-3-yl]-isoxazol-5-yl}-phenyl)-morpholin-4-yl-methanone], the IC50 in assay [1] came to 2.2 nM; in assay [2], 120 nM.

Turning to `COCCOc1cc2[nH]nc(-c3cc(-c4ccc(C(=O)N5CCCOCC5)cc4)no3)c2cc1F` [A44, 5-fluoro-6-(2-methoxyethoxy)-3-{3-[4-(1,4-oxazepane-4-carbonyl)phenyl]-1,2-oxazol-5-yl}-1H-indazole], the figures for the IC50 in assay [1] and in assay [2] were 1.1 nM and 41 nM, respectively.

Turning to `COCCOc1cc2[nH]nc(-c3cc(-c4ccc(C(=O)N5CCN(C6COC6)CC5)cc4)no3)c2cc1F` [A45, (4-{5-[5-fluoro-6-(2-methoxy-ethoxy)-1H-indazol-3-yl]-isoxazol-3-yl}-phenyl)-(4-oxetan-3-yl-piperazin-1-yl)-methanone], the IC50 in assay [1] worked out at 1.2 nM; in assay [2] it was 59 nM.

For the compound `COCCOc1cc2[nH]nc(-c3cc(-c4ccc(C(=O)N5CCNCC5)cc4)no3)c2cc1F` [A46, 5-fluoro-6-(2-methoxyethoxy)-3-{3-[4-(piperazine-1-carbonyl)phenyl]-1,2-oxazol-5-yl}-1H-indazole], the IC50 in assay [1] came out at 0.96 nM; in assay [2], 58 nM.

For the compound `COCCOc1cc2[nH]nc(-c3cc(-c4ccc(N=S(C)(C)=O)cc4)no3)c2cc1F` [A47, [(4-{5-[5-fluoro-6-(2-methoxyethoxy)-1H-indazol-3-yl]-1,2-oxazol-3-yl}phenyl)imino]dimethyl-lambda6-sulfanone], the IC50 worked out at 2.4 nM in assay [1] and 77 nM in assay [2].

Regarding `COC(CO)COc1cc2[nH]nc(-c3cc(-c4ccc(C(=O)N(C)C)cc4)no3)c2cc1F` (stereo not drawn) [A49, 4-{5-[5-fluoro-6-(3-hydroxy-2-methoxypropoxy)-1H-indazol-3-yl]-1,2-oxazol-3-yl}-N,N-dimethylbenzamide], the IC50 in assay [1] was found to be 1.9 nM; in assay [2], 500 nM.

As to `C[C@H]1CN(C)CCN1C(=O)c1ccc(-c2cc(-c3n[nH]c4cc(C(F)(F)F)ccc34)on2)cc1` [A50, 3-(3-{4-[(2S)-2,4-dimethylpiperazine-1-carbonyl]phenyl}-1,2-oxazol-5-yl)-6-(trifluoromethyl)-1H-indazole], the results for the IC50 in assay [1] and in assay [2] were 14 nM and 730 nM, respectively.

For the compound `COCCOc1cc2[nH]nc(-c3cc(-c4ccc(C(=O)N5CCC[C@H]5CO)cc4)no3)c2cc1F` [A51, [(2S)-1-(4-{5-[5-fluoro-6-(2-methoxyethoxy)-1H-indazol-3-yl]-1,2-oxazol-3-yl}benzoyl)pyrrolidin-2-yl]methanol], the IC50 is 0.88 nM in assay [1] and 57 nM in assay [2].

For the compound `COCCOc1cc2[nH]nc(-c3cc(-c4ccc(C(=O)N5CCC[C@@H]5CO)cc4)no3)c2cc1F` [A52, [(2R)-1-(4-{5-[5-fluoro-6-(2-methoxyethoxy)-1H-indazol-3-yl]-1,2-oxazol-3-yl}benzoyl)pyrrolidin-2-yl]methanol], the IC50 was 0.82 nM in assay [1] and 55 nM in assay [2].

As for `COCCOc1cc2[nH]nc(-c3cc(-c4ccc(C(=O)N5CC(N6CCOCC6)C5)cc4)no3)c2cc1F` [A53, 5-fluoro-6-(2-methoxyethoxy)-3-(3-{4-[3-(morpholin-4-yl)azetidine-1-carbonyl]phenyl}-1,2-oxazol-5-yl)-1H-indazole], the figures for the IC50 in assay [1] and in assay [2] were 1.4 nM and 15 nM, respectively.

As to `COCCOc1cc2[nH]nc(-c3cc(-c4ccc(C(=O)N5CCN(C)CC5CO)cc4)no3)c2cc1F` (stereo not drawn) [A54, [1-(4-{5-[5-fluoro-6-(2-methoxyethoxy)-1H-indazol-3-yl]-1,2-oxazol-3-yl}benzoyl)-4-methylpiperazin-2-yl]methanol], the results for the IC50 in assay [1] and in assay [2] were 0.73 nM and 130 nM, respectively.

`COCCOc1cc2[nH]nc(-c3cc(-c4ccc(C(=O)N5CCC[C@@H]5CS(C)(=O)=O)cc4)no3)c2cc1F` [A55, 5-fluoro-3-(3-{4-[(2R)-2-(methanesulfonylmethyl)pyrrolidine-1-carbonyl]phenyl}-1,2-oxazol-5-yl)-6-(2-methoxyethoxy)-1H-indazole]: the values for the IC50 in assay [1] and in assay [2] were 0.73 nM and 65 nM, respectively.

Regarding `COCCOc1cc2[nH]nc(-c3cc(-c4ccc(C(=O)N5CC(C)(N)C5)cc4)no3)c2cc1F` [A56, 1-(4-{5-[5-fluoro-6-(2-methoxyethoxy)-1H-indazol-3-yl]-1,2-oxazol-3-yl}benzoyl)-3-methylazetidin-3-amine], the results for the IC50 in assay [1] and in assay [2] were 1.6 nM and 170 nM, respectively.
